Reference: patent US20090215804A1, “FUMARATE OF 4- [[4- [[4- (2-CYANOETHENYL) -2,6-DIMETHYLPHENYL)AMINO] -2-PYRIMIDINYL]AMINO]BENZONITRILE” (priority 2004, published 2009)
Converted amounts (≈) assume the structure as drawn. Like-named read-outs stand apart in the source and are kept apart here. One block for each compound: values may come before it.

Assays:
HIV = conditions: wild type of HIV as well as drug and multi drug resistant strains of HIV; cited from earlier work
[1] = Chemical stability: storage at different humidity and temperature, HPLC for percentage of impurities; assay type: physicochemical
Procedure: Compound (I-a) was stored under different conditions of humidity and temperature. After storage, the salt was analyzed by High Performance Liquid Chromatography (HPLC) for percentage of impurities.

[2] = Physical stability of the crystal structure after storage, infrared spectroscopy; assay type: physicochemical; conditions: six weeks storage, conditions of Table 2, infrared spectroscopy
Procedure: The stability of the crystal structure of the compound of formula (I-a) was studied after storage for a period of six weeks under different conditions of humidity and temperature. The same conditions as described in Table 2 were applied. After storage the compound was analyzed with infrared spectroscopy.

Solubility data = assay type: physicochemical
Description: Table 1 lists solubility data of free base (E) 4-[[4-[[4-(2-cyanoethenyl)-2,6-dimethylphenyl]amino]-2-pyrimidinyl]amino]benzonitrile and of the compound of formula (I-a).

BCS classification = assay type: physicochemical
Description: A scientific framework for classifying drug substances based on their aqueous solubility and intestinal permeability is the Biopharmaceutics Classification System or BCS. […] Free base and fumarate salt may be classified as BCS class 2 compounds.

Hygroscopicity = assay type: physicochemical

SMILES: Cc1cc(C=CC#N)cc(C)c1Nc1ccnc(Nc2ccc(C#N)cc2)n1 [4-[[4-[[4-(2-cyanoethenyl)-2,6-dimethylphenyl]amino]-2-pyrimidinyl]amino]-benzonitrile]
- HIV replication inhibiting activity (HIV): excellent

- Sum of impurities % ([1]; 40° C./75% RH, 4 weeks): 0.62 %, w/w
- Sum of impurities % ([1]; 40° C./75% RH, 8 weeks): 0.61 %, w/w
- Sum of impurities % ([1]; 50° C./air, 4 weeks): 0.62 %, w/w
- Sum of impurities % ([1]; 50° C./air, 8 weeks): 0.61 %, w/w
- Sum of impurities % ([1]; RT/56% RH, 4 weeks): 0.58 %, w/w
- Sum of impurities % ([1]; RT/56% RH, 8 weeks): 0.64 %, w/w
- Sum of impurities % ([1]; RT/75% RH, 4 weeks): 0.59 %, w/w
- Sum of impurities % ([1]; RT/75% RH, 8 weeks): 0.65 %, w/w
- Sum of impurities % ([1]; RT/<5% RH, 4 weeks): 0.61 %, w/w
- Sum of impurities % ([1]; RT/<5% RH, 8 weeks): 0.62 %, w/w
- Sum of impurities % ([1]; Reference, 1 week): 0.58 %, w/w
- chemical stability (in words) ([1]; storage conditions of Table 2): chemically stable
- Concentration in mg/ml, 0.01 N HCl (Solubility data; solubility in 0.01 N HCl): 0.013 mg/mL
- solubility (Solubility data; water, solubility in water, read-out: Concentration in mg/ml, Water): 0.0009 mg/mL
- solubility in water and in HCl (in words) (Solubility data; water): poor solubility
- BCS class (BCS classification): BCS class 2
- hygroscopicity (Hygroscopicity): not hygroscopic
SMILES: Cc1cc(/C=C/C#N)cc(C)c1Nc1ccnc(Nc2ccc(C#N)cc2)n1 [Compound of formula (I-a)]
- stability of the crystal structure [2]: No changes in crystal structure were observed

- solubility (Solubility data; 0.01 N HCl, simulated gastric fluid, solubility in 0.01 N HCl, read-out: Concentration in mg/ml, 0.01 N HCl): 0.019 mg/mL (≈ 51.9 µM)
- Concentration in mg/ml, PEG 400 (Solubility data; solubility in PEG 400): 40 mg/mL
- Concentration in mg/ml, Water (Solubility data; solubility in water): 0.00002 mg/mL
- solubility in water and in HCl (in words) (Solubility data; water): poor solubility
- BCS class (BCS classification): BCS class 2
SMILES: Cc1cc(/C=C/C#N)cc(C)c1Nc1ccnc(Nc2ccc(C#N)cc2)n1 [Free base (E-isomer), (E) 4-[[4-[[4-(2-cyanoethenyl)-2,6-dimethylphenyl]amino]-2-pyrimidinyl]amino]benzonitrile]
